The text below walks through data of patent US10865222B2, “Neisseria gonorrhoeae therapeutic based on CMP-nonulosonate sugars” (priority 2014, dated 2020).

The subject of one experiment is N. gonorrhoeae F62 ΔIgtD. Briefly: Whole cell ELISA for Ab binding and complement component deposition. It is filed as cell-based. Particulars: for complement deposition (C3, C4 and fB) and Ig binding: 3.3% and 10% NHS; for Neu5Ac-mediated decrease in IgG binding and complement deposition (C4, C3, factor Bb): analogue 20, 2 or 0.2 μg/ml 15 min after CMP-Neu5Ac 20 μg/ml, 10% and 3.3% NHS. As to the method:
FIG. 4. Complement C3 and C4 deposition on, and factor B binding to N. gonorrhoeae bearing nonulosonic acid analogues on LOS. N. gonorrhoeae F62 ΔIgtD was grown in media alone (open bars), or media supplemented with 20 μg/ml (˜30 μM) of each of the indicated CMP-nonulosonates. Bacteria were incubated with either 3.3% or 10% NHS at 37° C. for 10 min and IgG and IgM binding, and C3, C4 and factor B deposited on bacteria were measured by whole cell ELISA. Data with 3.3% and 10% NHS is shown by hatched and solid bars, respectively. Measurement of gonococcal H.8 lipoprotein antigen was performed to ensure similar bacterial capture to microtiter wells. The mean (SD) of triplicate observations is shown.
FIG. 6. CMP-Neu5Ac9Az and CMP-Leg5Ac7Ac interfere with inhibition of the classical and alternative pathways of complement mediated by CMP-Neu5Ac. N. gonorrhoeae F62 ΔIgtD was incubated with 20 μg/ml (˜30 μM) CMP-Neu5Ac, followed in 15 min by the addition of CMP-Neu5Ac9Az or CMP-Leg5Ac7Ac (at concentrations of 20, 2 or 0.2 μg/ml final) and bacteria were incubated for 2 h as described in FIG. 5. Bacteria were incubated in 10% NHS and Ab binding and complement deposition studies were carried out by ELISA as described in FIG. 4. The mean (SD) of two independent experiments is shown.
Binding of IgG and IgM to, and deposition of complement components C3, C4 and factor B on N. gonorrhoeae F62 ΔIgtD grown in the presence of the following CMP-nonulosonates was examined based on results of bactericidal assays and fH binding. […] N. gonorrhoeae F62 ΔIgtD with an unmodified (unsialylated) LNT LOS was used as the control serum sensitive strain. Experiments were carried out using serum concentrations of 10% and 3.3%, which represented the serum concentrations that produced discriminating phenotypes with Neu5Ac9Ac and Neu5Gc8Me.
To define the mechanism whereby Neu5Ac9Az and Leg5Ac7Ac blocked complement resistance by Neu5Ac, we studied Ab binding to, and complement component deposition on N. gonorrhoeae F62 ΔIgtD that was incubated with CMP-Neu5Ac (20 μg/ml), followed 15 min later with either CMP-Neu5Ac9Az or CMP-Leg5Ac7Ac at concentrations of 20, 2 or 0.2 μg/ml. Controls included bacteria grown in the absence of any CMP-nonulosonate, or bacteria grown in CMP-Neu5Ac alone.
C3 and C4 fragment deposition on, and factor B binding to bacteria were measured by whole cell ELISA as described previously (14, 15). Briefly, 2×10^8 organisms in HBSS^++ were incubated with NHS (at concentrations of 3.3% or 10%) in a reaction volume of 100 μl for 10 min at 37° C. This time point was chosen based on the kinetics of complement deposition on gonococci in previously published data (15). Reactions were stopped after 10 min by washing three times with ice-cold HBSS containing 5 mM phenylmethylsulfonyl fluoride at 4° C. Organisms were resuspended in 200 μl of the same buffer, and 50 μl of each sample applied per well of a 96-well U-bottomed polystyrene microtiter plate (Dynatech Laboratories, Inc., Chantilly, Va.) and incubated for 3 h at 37° C. Plates were washed with PBS containing 0.05% Tween 20. Primary antibodies (polyclonal goat anti-human C3, C4 and factor B) were diluted in PBS, and secondary antibodies diluted in PBS-0.05% Tween 20 prior to use. To ensure similar capture of bacteria incubated under different conditions, the amount of gonococcal H.8 antigen (16) expression using MAb 2-8C-4-1 (13), followed by anti-mouse IgG-alkaline phosphatase conjugate, was measured.
On the technique in general: An ELISA detects its analyte on a solid surface through an enzyme-linked reagent.

Experiment [1] concerns the target T1, Lst sialyltransferase from N. gonorrhoeae F62 (Neisseria gonorrhoeae, UniProt P72074).
T1 construct: made in house; host or cells: Escherichia coli
The experiment in a line: Lst sialyltransferase acceptor specificity with CMP-Neu5Ac and CMP-Leg5Ac7Ac donors (TLC). Particulars: for removal of the nonulosonate from modified LacNAc acceptors by Lst over time: 2 h versus 20 h. It is filed as biochemical. As to the method: (§1) FIG. 11. N. gonorrhoeae Lst sialyltransferase efficiently legylates a LacNAc acceptor. The acceptor specificity of N. gonorrhoeae Lst sialyltransferase was assessed using CMP-Neu5Ac and CMP-Leg5Ac7Ac donors. The various acceptors tested were LacNAc or Galβ-1,4-GlcNAc-β-FCHASE, Lacto-N-biose or Galβ-1,3-GlcNAc-β-FCHASE, TAg or Galβ-1,3-GalNAc-α-FCHASE, and Pk or Galα-1,4-Galβ-1,4-Glc-β-FCHASE. Lst enzyme preparations (2.5 μg per assay) were incubated with 2.5 pmoles of each acceptor with either 3 mM CMP-Neu5Ac or 3 mM CMP-Leg5Ac7Ac for either 2 or 20 h as indicated. Reactions were then examined by TLC. Arrows indicate the general vicinity of FCHASE acceptors (top spots), whereas arrowheads indicate the general vicinity of modified FCHASE acceptors (bottom spots—enzyme product).
as §1, with “The” for “FIG. 11. N. gonorrhoeae Lst sialyltransferase efficiently legylates a LacNAc acceptor. The”, “product) (FIG. 11).” for “product).”
Lst sialyltransferase from N. gonorrhoeae F62 was recombinantly produced in Escherichia coli. Total membranes were isolated by ultracentrifugation at 100,000×g, resuspended in 0.2% Triton X-100, 50 mM Tris pH 7.5, 100 mM NaCl and incubated for 2 h at 4° C. […] N. gonorrhoeae Lst enzymatic assays were performed using 2.5 pmoles of 4 different FCHASE acceptors; LacNAc or Galβ-1,4-GlcNAc-β-FCHASE, Lacto-N-biose or Galβ-1,3-GlcNAc-β-FCHASE, TAg or Galβ-1,3-GalNAc-α-FCHASE, Pk or Galα-1,4-Galβ-1,4-Glc-β-FCHASE. CMP-Neu5Ac donor assays contained 50 mM Tris pH 7.5, whereas CMP-Leg5Ac7Ac donor assays contained 50 mM MES pH 6. All reactions contained 10 mM MnCl2, 3 mM CMP-sugar donor and 2.5 μg Lst enzyme. Reactions were incubated at 30° C. for either 2 h or 20 h as indicated. Upon completion of the reactions, stop solution was added (final concentration of 0.5% SDS, 5 mM EDTA, 25% acetonitrile) and an aliquot was run on TLC using EtOAc:MeOH:H2O:HOAc 4:2:1:0.1 as the mobile phase.

Where [2] appears, read: CMP-nonulosonate 20 μg/ml, NHS 3.3% or 10%.
The mark [3] stands for this setting: 10% serum, compared with unsialylated F62 ΔIgtD.

Entries after “also recorded” stand apart in the source; their conditions may differ.

T1 sequence (P72074 whole entry): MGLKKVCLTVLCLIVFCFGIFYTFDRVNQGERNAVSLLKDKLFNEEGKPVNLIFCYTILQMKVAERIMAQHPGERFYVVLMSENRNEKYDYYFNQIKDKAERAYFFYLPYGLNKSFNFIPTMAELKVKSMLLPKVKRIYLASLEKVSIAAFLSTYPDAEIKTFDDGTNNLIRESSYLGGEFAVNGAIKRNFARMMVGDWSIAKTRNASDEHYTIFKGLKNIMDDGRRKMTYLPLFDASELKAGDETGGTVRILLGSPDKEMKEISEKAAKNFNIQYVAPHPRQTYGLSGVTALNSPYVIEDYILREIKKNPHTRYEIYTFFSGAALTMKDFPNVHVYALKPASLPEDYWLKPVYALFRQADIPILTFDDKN

Regarding `CC(=O)NC1C(O)CC(OP(=O)(O)OCC2OC(n3ccc(N)nc3=O)C(O)C2O)(C(=O)O)OC1C(O)C(O)CO` [CMP-Neu5Ac, CMP-5-acetamido-3,5-dideoxy-D-glycero-D-galacto-nonulosonic acid, reference compound], the “complement deposition (C3, C4 and fB) and Ig binding” value in the experiment on N. gonorrhoeae F62 ΔIgtD (CMP-nonulosonate 20 μg/ml) was “maximal complement inhibition”. Besides, in the experiment with N. gonorrhoeae F62 ΔIgtD (setting [2]), the IgG binding result is recorded as “decreased IgG binding substantially” and the IgM binding entry is on record as “small but reproducible decrease”. In experiment [1] (3 mM CMP-sugar donor, 2 or 20 h), the “utilization of Lacto-N-biose, TAg and Pk acceptors” value is “all but TAg could be efficiently utilized”. The “removal of the nonulosonate from modified LacNAc acceptors by Lst over time” value in experiment [1] was “can remove Neu5Ac from modified LacNAc acceptors over time”.

For the molecule `COC(CO)C(O)C1OC(OP(=O)(O)OCC2OC(n3ccc(N)nc3=O)C(O)C2O)(C(=O)O)CC(O)C1NC(=O)CO` [CMP-Neu5Gc8Me, CMP-5-hydroxyacetamido-8-O-methyl-3,5-dideoxy-D-glycero-D-galacto-nonulosonic acid], the figures for the “C3, C4 and factor B deposition” value with N. gonorrhoeae F62 ΔIgtD (3.3% serum) and in the experiment on N. gonorrhoeae F62 ΔIgtD (setting [3]) were “low levels” and “only a modest decline”, respectively. The IgG binding entry in the experiment with N. gonorrhoeae F62 ΔIgtD (setting [2]) is “reduced IgG binding”.

As to `CC(=O)N[C@H]1[C@H]([C@H](O)[C@H](O)COC(C)=O)OC(OP(=O)(O)OC[C@H]2O[C@@H](n3ccc(N)nc3=O)[C@H](O)[C@@H]2O)(C(=O)O)C[C@@H]1O` (stereo partly drawn) [CMP-Neu5Ac9Ac, CMP-5-acetamido-9-O-acetyl-3,5-dideoxy-D-glycero-D-galacto-nonulosonic acid], the “C3, C4 and factor B deposition” value is “low levels” with N. gonorrhoeae F62 ΔIgtD (3.3% serum) and “only a modest decline” in the experiment with N. gonorrhoeae F62 ΔIgtD (setting [3]). The IgG binding result in the experiment with N. gonorrhoeae F62 ΔIgtD (setting [2]) is “reduced IgG binding”.

For the molecule “5,7-diacetamido-3,5,7,9-tetradeoxy-D-glycero-D-galacto-nonulosonic acid [CMP-Leg5Ac7Ac]”, the “complement deposition (C3, C4 and fB) and Ig binding” value in the experiment with N. gonorrhoeae F62 ΔIgtD (CMP-nonulosonate 20 μg/ml) is “highest levels of complement deposition and Ig binding”. For the same molecule, the “Neu5Ac-mediated decrease in IgG binding and complement deposition (C4, C3, factor Bb)” value with N. gonorrhoeae F62 ΔIgtD is recorded as “least amount of complement inhibition; also recorded: blocked this decrease”. Moreover, the “product conversion of LacNAc acceptor” value in experiment [1] (3 mM CMP-sugar donor, 2.5 μg Lst) is recorded as around 100%. Also, the “removal of the nonulosonate from modified LacNAc acceptors by Lst over time” value in experiment [1] is on record as “this was not observed”.

As for `CC(=O)N[C@H]1[C@H]([C@H](O)[C@H](O)CN=[N+]=[N-])OC(OP(=O)(O)OC[C@H]2O[C@@H](n3ccc(N)nc3=O)[C@H](O)[C@@H]2O)(C(=O)O)C[C@@H]1O` (stereo partly drawn) [CMP-Neu5Ac9Az, CMP-5-acetamido-9-azido-3,5,9-trideoxy-D-glycero-D-galacto-nonulosonic acid], the “complement deposition (C3, C4 and fB) and Ig binding” value with N. gonorrhoeae F62 ΔIgtD (CMP-nonulosonate 20 μg/ml) was “highest levels of complement deposition and Ig binding”. The “Neu5Ac-mediated decrease in IgG binding and complement deposition (C4, C3, factor Bb)” value with N. gonorrhoeae F62 ΔIgtD is listed as “blocked this decrease”.
